Results from the supplement of paper PMC9013687.
± gives the standard deviation of the averaged measurements.

Legend:
[1] = system: Danio rerio embryo; test: EC50 Curvature_Increase
Procedure: (§1)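 Zebrafish embryos (UFZ-OBI strain) were exposed from 2 hpf for 48 h (2 dpf) or 96 h (4 dpf) at 28 °C; spontaneous tail coiling was scored at 25 hpf. Morphological features from automated image analysis (FishInspector), heart rate and locomotor response were fitted with drc models. Quantal endpoints were dichotomised at 2.5 SD from controls and fitted with a log-logistic model; heart rate, pigmentation and STC were normalised to the replicate control mean. Betamethasone was tested as betamethasone dipropionate, diflorasone as diflorasone diacetate.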

[2] = system: Danio rerio embryo; test: EC20 LMR dark; higher = less potent; conditions: exposure time: 4 dpf
Procedure: as §1

[3] = system: Danio rerio embryo; test: EC10 Eye-jaw distance_Decrease; higher = less potent; conditions: exposure time: 4 dpf
Procedure: as §1

[4] = system: Danio rerio embryo; test: EC20 Eye-jaw distance_Decrease; higher = less potent; conditions: exposure time: 4 dpf
Procedure: as §1

[5] = system: Danio rerio embryo; conditions: exposure time: 4 dpf
Procedure: as §1

[6] = system: Danio rerio embryo; test: EC10 Otolith-eye distance_Decrease; higher = less potent; conditions: exposure time: 4 dpf
Procedure: as §1

[7] = system: Danio rerio embryo
Procedure: as §1

[8] = system: Danio rerio embryo; test: EC20 Body length_Decrease; higher = less potent
Procedure: as §1

[9] = system: Danio rerio embryo; test: EC20 Bladder size_Decrease; higher = less potent; conditions: exposure time: 4 dpf
Procedure: as §1

[10] = system: Danio rerio embryo; test: EC50 Eye size_Decrease
Procedure: as §1

[11] = system: Danio rerio embryo; test: EC10 Bladder size_Decrease; higher = less potent; conditions: exposure time: 4 dpf
Procedure: as §1

[12] = system: Danio rerio embryo; test: EC20 Curvature_Increase; higher = less potent
Procedure: as §1

[13] = system: Danio rerio embryo; test: EC50 Eye-jaw distance_Decrease; conditions: exposure time: 4 dpf
Procedure: as §1

[14] = system: Danio rerio embryo; test: EC10 LMR dark; higher = less potent; conditions: exposure time: 4 dpf
Procedure: as §1

[15] = system: Danio rerio embryo; test: EC50 Otolith-eye distance_Decrease; conditions: exposure time: 4 dpf
Procedure: as §1

[16] = system: Danio rerio embryo; test: EC10 Curvature_Increase; higher = less potent
Procedure: as §1

[17] = system: Danio rerio embryo; test: EC50 Yolk sac size_Increase
Procedure: as §1

[18] = system: Danio rerio embryo; test: EC20 Otolith-eye distance_Decrease; higher = less potent; conditions: exposure time: 4 dpf
Procedure: as §1

[19] = system: Danio rerio embryo; test: EC20 Pericard size_Increase; higher = less potent
Procedure: as §1

[20] = system: Danio rerio embryo; test: EC50 Bladder size_Decrease; conditions: exposure time: 4 dpf
Procedure: as §1

[21] = system: Danio rerio embryo; test: EC10 Body length_Decrease; higher = less potent
Procedure: as §1

[22] = system: Danio rerio embryo; test: EC20 Any effect; higher = less potent
Procedure: as §1

[23] = system: Danio rerio embryo; test: EC50 Pericard size_Increase
Procedure: as §1

[24] = system: Danio rerio embryo; test: EC10 Pericard size_Increase; higher = less potent
Procedure: as §1

[25] = system: Danio rerio embryo; test: EC10 Yolk sac size_Increase; higher = less potent
Procedure: as §1

[26] = system: Danio rerio embryo; test: EC50 Body length_Decrease
Procedure: as §1

[27] = system: Danio rerio embryo; test: EC20 Yolk sac size_Increase; higher = less potent
Procedure: as §1

[28] = system: Danio rerio embryo; test: EC50 Head trunk angle_Decrease; conditions: exposure time: 2 dpf
Procedure: as §1

[29] = system: Danio rerio embryo; test: spontaneous tail coiling frequency (coils/min/embryo); higher = more spontaneous movement; conditions: 25 hpf
Procedure: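 Spontaneous tail coilings of zebrafish embryos exposed from 2 hpf were recorded at 24-25 hpf in 1-min videos and detected by a KNIME workflow from grey-value variance. Betamethasone was tested as the dipropionate, diflorasone as the diacetate.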

[30] = system: Danio rerio embryo; test: EC10 Any effect; higher = less potent
Procedure: as §1

For CCCCC(O)(Cn1cncn1)c1ccc(Cl)cc1Cl (stereo not drawn) [Hexaconazole], which “EC50 Curvature Increase” value ([1]; exposure time: 2 dpf) is on record?
The value was 21.2 µM.

And the “EC50 Curvature Increase” value ([1]; exposure time: 4 dpf)?
The value was 17.5 µM.

And the “EC20 LMR dark” value [2]?
The value was 3.68 µM.

What about the “EC10 Eye-jaw distance Decrease” value [3] of the same compound?
Its value is 9.21 µM.

And the “EC20 Eye-jaw distance Decrease” value [4]?
The value was 10.5 µM.

What about the “EC50 LMR dark” value [5] of the same compound?
Its value is 4.83 µM.

What about the “EC10 Otolith-eye distance Decrease” value [6] of the same compound?
Its value is 19.6 µM.

What about the “EC50 Any effect” value ([7]; exposure time: 2 dpf) of the same compound?
Its value is 19.5 µM.

What about the “EC50 Any effect” value ([7]; exposure time: 4 dpf) of the same compound?
Its value is 10.8 µM.

And the “EC50 STC bell shape” value ([7]; exposure time: 25 h)?
Its value is 23.4 µM.

And the “EC20 Body length Decrease” value ([8]; exposure time: 2 dpf)?
The value was 23.5 µM.

What about the “EC20 Body length Decrease” value ([8]; exposure time: 4 dpf) of the same compound?
The value was 13.7 µM.

And the “EC20 Bladder size Decrease” value [9]?
Its value is 7.52 µM.

What about the “EC50 Eye size Decrease” value ([10]; exposure time: 2 dpf) of the same compound?
The value was 56.1 µM.

And the “EC50 Eye size Decrease” value ([10]; exposure time: 4 dpf)?
The value was 15.1 µM.

And the “EC10 Bladder size Decrease” value [11]?
The value was 6.28 µM.

What about the “EC20 Curvature Increase” value ([12]; exposure time: 2 dpf) of the same compound?
The value was 18.8 µM.

What about the “EC20 Curvature Increase” value ([12]; exposure time: 4 dpf) of the same compound?
The value was 13.7 µM.

And the “EC50 Eye-jaw distance Decrease” value [13]?
The value was 13.1 µM.

What about the “EC10 LMR dark” value [14] of the same compound?
Its value is 3.21 µM.

And the “EC50 Otolith-eye distance Decrease” value [15]?
The value was 19.8 µM.

And the “EC10 Curvature Increase” value ([16]; exposure time: 2 dpf)?
Its value is 17.5 µM.

What about the “EC10 Curvature Increase” value ([16]; exposure time: 4 dpf) of the same compound?
Its value is 11.8 µM.

What about the “EC50 Yolk sac size Increase” value ([17]; exposure time: 2 dpf) of the same compound?
The value was 51.2 µM.

And the “EC50 Yolk sac size Increase” value ([17]; exposure time: 4 dpf)?
Its value is 9.95 µM.

And the “EC20 Otolith-eye distance Decrease” value [18]?
The value was 19.7 µM.

And the “EC20 Pericard size Increase” value ([19]; exposure time: 2 dpf)?
The value was 17.9 µM.

And the “EC20 Pericard size Increase” value ([19]; exposure time: 4 dpf)?
Its value is 16.9 µM.

What about the “EC50 Bladder size Decrease” value [20] of the same compound?
The value was 10.3 µM.

What about the “EC10 Body length Decrease” value ([21]; exposure time: 2 dpf) of the same compound?
Its value is 19.2 µM.

And the “EC10 Body length Decrease” value ([21]; exposure time: 4 dpf)?
The value was 12.2 µM.

And the “EC20 Any effect” value ([22]; exposure time: 2 dpf)?
Its value is 15.7 µM.

What about the “EC20 Any effect” value ([22]; exposure time: 4 dpf) of the same compound?
The value was 9.17 µM.

And the “EC50 Pericard size Increase” value ([23]; exposure time: 2 dpf)?
The value was 31.5 µM.

And the “EC50 Pericard size Increase” value ([23]; exposure time: 4 dpf)?
Its value is 20.4 µM.

What about the “EC10 Pericard size Increase” value ([24]; exposure time: 2 dpf) of the same compound?
Its value is 12.8 µM.

And the “EC10 Pericard size Increase” value ([24]; exposure time: 4 dpf)?
Its value is 15.2 µM.

What about the “EC10 Yolk sac size Increase” value ([25]; exposure time: 2 dpf) of the same compound?
The value was 45 µM.

What about the “EC10 Yolk sac size Increase” value ([25]; exposure time: 4 dpf) of the same compound?
Its value is 5.45 µM.

And the “EC50 Body length Decrease” value ([26]; exposure time: 2 dpf)?
Its value is 33.4 µM.

And the “EC50 Body length Decrease” value ([26]; exposure time: 4 dpf)?
The value was 16.8 µM.

And the “EC20 Yolk sac size Increase” value ([27]; exposure time: 2 dpf)?
The value was 47.2 µM.

What about the “EC20 Yolk sac size Increase” value ([27]; exposure time: 4 dpf) of the same compound?
Its value is 6.81 µM.

What about the “EC50 Head trunk angle Decrease” value [28] of the same compound?
The value was 23.3 µM.

And the “spontaneous tail coiling frequency” value ([29]; 5 µM)?
Its value is 10.3.

What about the “spontaneous tail coiling frequency” value ([29]; 9.9 µM) of the same compound?
The value was 9.83 ± 1.7.

And the “spontaneous tail coiling frequency” value ([29]; 13.3 µM)?
The value was 9.46 ± 0.4.

What about the “spontaneous tail coiling frequency” value ([29]; 19.9 µM) of the same compound?
Its value is 9.25 ± 2.5.

What about the “spontaneous tail coiling frequency” value ([29]; 26.5 µM) of the same compound?
The value was 1.62 ± 0.91.

And the “spontaneous tail coiling frequency” value ([29]; 53 µM)?
Its value is 0.

And the “spontaneous tail coiling frequency” value ([29]; 79.6 µM)?
Its value is 0.

And the “EC10 Any effect” value ([30]; exposure time: 2 dpf)?
Its value is 13.8 µM.

What about the “EC10 Any effect” value ([30]; exposure time: 4 dpf) of the same compound?
The value was 8.34 µM.
